Data on six compounds can be found in patent publication US20230322743A1, “NOVEL […] DERIVATIVES HAVING PRODRUG PROPERTIES” (Compass Pathfinder Limited, priority 2020, published 2023).

Molecules are shown by their SMILES. Converted amounts (≈) assume the structure as drawn. Bounds are passed on as bounds.

One series in a line: Micro shake flask LogD. The settings on record: for Mean LogD: Octanol:PBS 1:9 at pH 7.4, 10 μM, six replicates. As for the experimental part:
6 replicates of each test compound were incubated at 10 μM in a 1:9 ratio of Octanol:PBS at pH 7.4. Following a two hour incubation at room temperature shaking at 600 rpm, the incubation plate was centrifuged for 15 minutes to separate the layers and then two aliquots were removed from the PBS layer. The first was left neat and the second was diluted 10-fold to give dilute samples. Internal standards were added to both the calibration curve and the PBS incubation samples for analysis on LC MS/MS. […] 5,6-MDAI-tryptophanamide and 3,4-MDA-tryptophanamide were prepared as hemioxalate salts.
LogD was measured as the concentration in the PBS layer against the generated calibration curve relative to the starting concentration of 10 μM. All 6 replicates of the neat samples were averaged to give one value for each, with the same calculation performed for the dilute sample values.
6 replicates of each test compound were incubated at 10 μM in a 1:9 ratio of Octanol:PBS at pH 7.4. Following a two hour incubation at room temperature shaking at 600 rpm, the incubation plate was centrifuged for 15 minutes to separate the layers and then two aliquots were removed from the PBS layer. The first was left neat and the second was diluted 10-fold to give dilute samples.

Series [1] is described as follows: Kinetic turbidimetric solubility assay. The settings on record: for Solubility: Example 12, 0.01 M phosphate buffered saline pH 7.4, 2% DMSO, room temperature, maximum concentration tested 200 μM, test compounds as hemioxalate salts; for solubility at 5 min: phosphate buffered saline, pH 7.4, aqueous buffer, kinetic from dmso stock.
The test system of series [2] is monoamine neurotransmitter release. The series is described as follows: Microdialysis of nucleus accumbens with HPLC analysis of dopamine, noradrenaline and serotonin. The format is in vivo, Male Sprague Dawley rats. The settings on record: rat, PO, 5 mg/kg.
Series [3] deals with behavioural measures of serotonin syndrome. The series can be described thus: Behavioural observations for measures of serotonin syndrome in rats. Conditions: rat, PO, 5 mg/kg; scored post-treatment up to 2 hours.
The test system of the next series is locomotor activity. The series is described as follows: Locomotor activity in rats following oral dosing (EthoVision tracking). The format is in vivo, Male Sprague Dawley rats. Conditions: rat, 5 mg/kg.
The test system of another series is rats. The settings on record: previously shown, Baumann et al. 2008; cited from earlier work.
The mark [4] stands for this setting: Example 13, glycinamides as hemioxalate salts.
The mark [5] stands for this setting: Example 12, test compounds as hemioxalate salts.

As to `CC(Cc1ccc2c(c1)OCO2)NC(=O)CN` (centres unmarked) [3,4-MDA-glycinamide], the “Mean LogD” value in the series “Micro shake flask LogD” (setting [4]) was found to be 1.08. For the same compound, in “Micro shake flask LogD” (Example 13, Octanol:PBS at pH 7.4), the “LogD compared with that of MDMA” value was “slightly greater than that of MDMA”.
As for `CC(Cc1ccc2c(c1)OCO2)NC(=O)[C@@H](N)Cc1c[nH]c2ccccc12` (some centres unmarked) [3,4-MDA-tryptophanamide], the Solubility in series [1] is more than 200 µM. In addition, the “Mean LogD” value in “Micro shake flask LogD” (setting [5]) is given as 1.97. Also, in series [2] (2 hour period following dosing), the “Dopamine levels in nucleus accumbens, compared to the vehicle group” value was “significant increases”; the “Noradrenaline levels in nucleus accumbens, compared to the vehicle group” value was “significant increases”; the “Serotonin levels in nucleus accumbens, compared to the vehicle group” value was “significant increases”. Further, in series [2] (nucleus accumbens), the “Magnitude of effect on serotonin levels compared to MDMA” value is “smaller in magnitude compared to MDMA”; the “Magnitude of effects on dopamine and noradrenaline levels compared to MDMA” value is on record as “smaller in magnitude compared to MDMA”. Further, the “Observations (approximate timecourse), behaviours significantly increased vs vehicle” value in series [3] is given as “None”.
For the compound `CC(Cc1ccc2c(c1)OCO2)N(C)C(=O)CN` (centres unmarked) [3,4-MDMA-glycinamide], in the series “Micro shake flask LogD” (setting [4]), the “Mean LogD” value worked out at 0.66.
Take `N[C@@H](Cc1c[nH]c2ccccc12)C(=O)NC1Cc2cc3c(cc2C1)OCO3` [5,6-MDAI-tryptophanamide]: the Solubility in series [1] is more than 200 µM. Besides, the “Mean LogD” value in the series “Micro shake flask LogD” (setting [5]) is reported as 2.31. The “Serotonin levels in nucleus accumbens, compared to the vehicle group” value in series [2] (2 hour period following dosing) is recorded as “significant increases”. Also, in series [2] (nucleus accumbens), the “Magnitude of effect on serotonin levels compared to MDMA” value was “smaller in magnitude compared to MDMA”. Also, the “Observations (approximate timecourse), behaviours significantly increased vs vehicle” value in series [3] is “None”.
For `CNC(C)Cc1ccc2c(c1)OCO2` (centres unmarked) [MDMA, 3,4-Methylenedioxy-N-methylamphetamine], in the series with locomotor activity (0-60 mins), the “Effect on locomotor activity (significant change in total distance travelled vs vehicle)” value is “↑↑↑ (↑↑↑, p < 0.001)”. The “Effect on locomotor activity (significant change in total distance travelled vs vehicle)” value in the series on locomotor activity (0-120 mins) is on record as “↑↑↑ (↑↑↑, p < 0.001)”. Also, the “Effect on locomotor activity (significant change in total distance travelled vs vehicle)” value with locomotor activity (60-120 mins) is recorded as “↑↑↑ (↑↑↑, p < 0.001)”. The solubility at 5 min in series [1] is not below 200 µM. Further, the logD at 2 h in “Micro shake flask LogD” (pH 7.4) turned out to be 0.57. In the series on rats, the “Behavioural measures of serotonin syndrome” value is “induce”, the Locomotion entry is listed as “hyperlocomotion” and the Monoamine neurotransmitter levels entry is listed as “elevations”. Also, the “Observations (approximate timecourse), behaviours significantly increased vs vehicle” value in series [3] is “Flattened posture (~0-40 mins) and hind limb”.
On to `COC(=O)C1=C(C)NC(C)=C(C(=O)OCCN(C)Cc2ccccc2)C1c1cccc([N+](=O)[O-])c1` (centres unmarked) [Nicardipine, reference compound], for which the solubility at 5 min in series [1] turned out to be 22.1 µM (≈ 10.6 µg/mL). This counts as double-digit micromolar.
